Structures can show the parent of a compound that is named as a salt. Where two headings read alike, the source gives them in different places. Starred links: 1 amine or outer side, 2 acyl side, 3 side chain; linkers in the order of their positions; H or OH if unused. Positions of bridges follow the written chain, without caps; N, C: chain ends. Non-standard residues stand in square brackets, D forms with d. Residues, ends and D or L forms follow the SMILES beside them. Chains are numbered I, II in the order given. Actinocin(9to1) = Cc1c2oc3c(C)ccc(C(=O)[*:1])c3nc-2c(C(=O)[*:2])c(N)c1=O; NMeV = CN[C@H](C(=O)O)C(C)C; Sar = CNCC(=O)O
What was measured:
[1] = tested on: Human breast carcinoma cells, MDA-MB-231; format: in vivo, mice
[2] = tested on: small intestine and bone marrow cells; conditions: mouse, in vivo
[3] = tested on: Human colon carcinoma cells, SW-480; format: in vivo, mice
[4] = tested on: Human lung carcinoma cells A549; format: in vivo, mice
[5] = tested on: small intestine and bone marrow cells; conditions: mouse, in vivo; remark: listed apart in the source
[6] = in vivo; cited from earlier work
[7] = oral; cited from earlier work
[8] = in vivo; cited from earlier work; remark: listed apart in the source
[9] = in vivo; cited from earlier work; remark: listed apart in the source
[10] = in vivo, cited from earlier work
[11] = in vivo; cited from earlier work; remark: listed apart in the source
[12] = oral, 30 mg/m^2 to 100 mg/m^2; cited from earlier work
multiple myeloma = conditions: oral administration; cited from earlier work
[13] = cited from earlier work
[14] = cited from earlier work; remark: listed apart in the source
[15] = tested on: chronic myelogenous leukemia; conditions: previously untreated chronic myelogenous leukemia; cited from earlier work
certain animal tumors = conditions: in vivo; cited from earlier work
[16] = patients with creatinine clearance >35 mL per minute; cited from earlier work
[17] = mice; cited from earlier work
[18] = 10 mg daily over 2 to 3 hours IV; cited from earlier work
p53 [19] = assay: p53 response to irradiation in peripheral blood lymphocytes after arsenic removal; format: in vivo, Mice
Experimental: We next used mice to examine arsenic-mediated modulation of p53 activity in vivo. To this end, we used peripheral blood lymphocytes to monitor the p53 response to irradiation. Mice were fed with water containing arsenic for 3 days. Whole blood was collected from the animals 1, 3, 5, 7, 9, or 11 days after arsenic removal. Lymphocytes were isolated by using the Ficoll method. The cells were cultured for 24 h, then irradiated at a dose of 2 Gy and harvested 3 hours post-treatment. Western analysis was performed. Consistent with the results from cell-based studies, p53 activation by radiation recovered, albeit with a slightly slower kinetics, after arsenic was removed. Radiation-induced p53 accumulation and p21 expression were suppressed at 0 and 1 day […], partially recovered at day 7 and completely back to the untreated level at day 9.

Heart = conditions: mouse, in vivo
p53 [20] = format: cell-based
[21] = mouse, in vivo
[22] = mouse, in vivo; remark: listed apart in the source
Lung = conditions: mouse, in vivo
p53 [23] = format: cell-based, human
[24] = set-up: species or system mice; conditions: mouse, in vivo
[25] = mouse, in vivo; remark: listed apart in the source
[26] = mouse, in vivo; remark: listed apart in the source
[27] = set-up: species or system mice; conditions: mouse, in vivo; remark: listed apart in the source
[28] = tested on: human adult foreskin keratinocytes; conditions: cited from earlier work
p53 [29] = assay: C57BL/6 WT vs p53 R172P knock-in mice, protection by arsenic; format: in vivo; conditions: in contrast with wild type littermates
[30] = 5FU 30 mg/kg i.v. daily for one week
[31] = after arsenic removal, 3 days arsenic water

O=c1[nH]cc(F)c(=O)[nH]1 [5FU, Fluorouracil]
Tumor volume response [1, 30]: marked tumor regression
Bone marrow cellularity [2]: Bone marrow cell exhaustion
Damage to the small intestine [2]: severe damages
Tumor volume response [3, 30]: marked tumor regression
Tumor volume response ([4]; 5FU 30 mg/kg intravenous daily for one week): marked tumor regression
Damage to small intestine and bone marrow cells [5]: severe damages

Cc1c2oc3c(C)ccc(C(=O)N[C@@H]4C(=O)N[C@H](C(C)C)C(=O)N5CCC[C@H]5C(=O)N(C)CC(=O)N(C)[C@@H](C(C)C)C(=O)O[C@@H]4C)c3nc-2c(C(=O)N[C@@H]2C(=O)N[C@H](C(C)C)C(=O)N3CCC[C@H]3C(=O)N(C)CC(=O)N(C)[C@@H](C(C)C)C(=O)O[C@@H]2C)c(N)c1=O [Actinomycin D] (I: T[dV]P[Sar][NMeV] / II: T[dV]P[Sar][NMeV]; ester I:1-I:C, II:1-II:C; linker I:N-II:N via Actinocin(9to1))
Blood-brain barrier passage [6]: does not pass the blood-brain barrier
Dose excreted intact into the bile [6]: Half of the dose
Dose excreted intact into the urine [6]: 10%
Half-life [6]: about 36 hr

O=C(O)CCCc1ccc(N(CCCl)CCCl)cc1 [Chlorambucil, 4-(bis(2-chlorethyl)amino)benzenebutanoic acid]
Absorption from the gastrointestinal tract [7]: rapidly and completely absorbed

N.N.[Cl][Pt][Cl] [Cisplatin]
Oral absorption [8]: not absorbed orally

O.O=P1(N(CCCl)CCCl)NCCCO1 (centres unmarked) [Cyclophosphamide, 2H-1,3,2-Oxazaphosphorin-2-amine, N,N-bis(2-chloroethyl)tetrahydro-, 2-oxide, monohydrate]
Stability in the gastrointestinal tract [9]: stable in the gastrointestinal tract

COc1cccc2c1C(=O)c1c(O)c3c(c(O)c1C2=O)C[C@@](O)(C(C)=O)C[C@@H]3O[C@H]1C[C@H](N)[C@H](O)[C@H](C)O1 [Daunorubicin, 5,12-Naphthacenedione, (8S-cis)-8-acetyl-10-(3-amino-2,3,6-trideoxy-a-L-lyxo-hexanopyranosyl)oxy)-7,8,9,10-tetrahydro-6,8,11-trihydroxy-10-methoxy hydrochloride]
Oral absorption ([10]; po): poor
Half-life of elimination [10]: about 19 hr

COc1cccc2c1C(=O)c1c(O)c3c(c(O)c1C2=O)C[C@@](O)(C(=O)CO)C[C@@H]3O[C@H]1C[C@H](N)[C@H](O)[C@H](C)O1 [Doxorubicin, 5,12-Naphthacenedione, (8s-cis)-10-((3-amino-2,3,6-trideoxy-a-L-lyxo-hexopyranosyl)oxy)-7,8,9,10-tetrahydro-6,8,11-trihydroxy-8-(hydroxyacetyl)-1-methoxy-hydrochloride]
Absorption [11]: absorbed poorly
Elimination half-life [11]: about 30 hr
Excreted into the urine [11]: a few percent

O=NN(CCCl)C(=O)NC1CCCCC1 [Lomustine, 1-(2-chloro-ethyl)-3-cyclohexyl-1 nitrosourea]
Radioactivity excreted as degradation products within 24 hours [12]: about half

N[C@@H](Cc1ccc(N(CCCl)CCCl)cc1)C(=O)O [Melphalan, 4-(bis(2-chloroethyl)amino)-L-phenylalanine]
Patients showing a favorable response (multiple myeloma): one third to one half

CO[C@@]12[C@H](COC(N)=O)C3=C(C(=O)C(C)=C(N)C3=O)N1C[C@@H]1N[C@@H]12 [Mitomycin]
Time required to reduce the serum concentration by 50% ([13]; 30 mg bolus injection): 17 min
Dose excreted unchanged in the urine ([13]; in vivo): Approximately 10%

CC[C@]1(O)C[C@@H]2CN(CCc3c([nH]c4ccccc34)[C@@](C(=O)OC)(c3cc4c(cc3OC)N(C)[C@H]3[C@@](O)(C(=O)OC)[C@H](OC(C)=O)[C@]5(CC)C=CCN6CC[C@]43[C@@H]65)C2)C1 [Vinblastine]
Absorption after oral administration ([14]; in vivo): Unpredictable absorption
Dose recovered in the feces after biliary excretion ([14]; in vivo): about 10%
Plasma protein binding ([14]; in vivo): bind to plasma proteins
Plasma half-life after distribution (first) ([14]; intravenous injection): approximately 1 hours
Plasma half-life after distribution (second) ([14]; intravenous injection): ~72000 s
Peak concentration in plasma ([14]; usual clinical doses): approximately 0.4 mM

CC[C@]1(O)C[C@H]2CN(CCc3c([nH]c4ccccc34)[C@@](C(=O)OC)(c3cc4c(cc3OC)N(C=O)[C@H]3[C@@](O)(C(=O)OC)[C@H](OC(C)=O)[C@]5(CC)C=CCN6CC[C@]43[C@@H]65)C2)C1 [Vincristine]
Absorption after oral administration ([14]; in vivo): Unpredictable absorption
Plasma protein binding ([14]; in vivo): bind to plasma proteins
Terminal half-life ([14]; plasma): about 24 hours

CS(=O)(=O)OCCCCOS(C)(=O)=O [busulfan, 1,4-butanediol dimethanesulfonate]
Adults obtaining hematologic remission [15]: Approximately 90%

COc1cccc2c1C(=O)c1c(O)c3c(c(O)c1C2=O)C[C@@](O)([C@H](C)O)C[C@@H]3O[C@H]1C[C@H](N)[C@H](O)[C@H](C)O1 [daunorubicinol]
Half-life of active metabolite [10]: about 27 hr

N[C@H](Cc1ccc(N(CCCl)CCCl)cc1)C(=O)O [medphalan]
Activity against certain animal tumors relative to L-isomer (certain animal tumors): less active

Bleomycin
Serum or plasma terminal elimination half-life [16]: approximately 115 minutes
Concentration in hematopoietic tissue [17]: low concentrations
Concentration in skin, lungs, kidneys, peritoneum, and lymphatics [17]: high concentrations

arsenic (III) oxide [Arsenic Trioxide]
Plasma arsenic mean peak level [18]: 6.85 µmol/L
t1/2α [18]: 0.89 ± 0.29 h
t1/2β [18]: 12.13 ± 3.31 h

sodium arsenite
Radiation-induced p53 accumulation and p21 expression (p53 [19]; 0 and 1 day, lymphocytes irradiated 2 Gy ex vivo): suppressed
Day of complete return to untreated level of p53 accumulation and p21 expression (p53 [19]; [31]): 9 days
Day of partial recovery of radiation-induced p53 accumulation and p21 expression (p53 [19]; [31]): 7 days
Grade of Damage, Heart (Heart): Zero
Effect on Hdm2 and p53 distribution (p53 [20]): upregulation of Hdm2 and accumulation of p53 in the cytoplasm
p53 response to genotoxic stress (p53 [20]): impaired p53 activation and apoptosis
Effect of arsenic pretreatment on 5FU-induced tumor suppression ([1]; mouse, in vivo): little effect
5FU damage to the small intestine with arsenic pretreatment [2]: significantly ameliorated
5FU-induced decrease of bone marrow cellularity with arsenic pretreatment [2]: considerably alleviated
Dose showing very clear toxicity by itself [21]: > 3500 μg/kg body weight
Body weight change [22]: little loss of body weight
Therapy-induced body weight loss with arsenic pretreatment [22]: effectively prevented
Grade of Damage, Lung (Lung): Zero
Time after arsenic removal until p53 activation almost completely recovered (p53 [23]): 7 days
Time in arsenic-free media until radiation-induced p53 activation detectable (p53 [23]): 5 days
Effect of arsenic pretreatment on 5FU-induced tumor suppression ([3]; mouse, in vivo): little effect
Effect on growth of the implanted tumors ([3]; mouse, in vivo): did not have any detectable effect
Duration of pretreatment adequate for optimal protection [24]: 3 days
Protection with 1 and 2 days pretreatment [24]: less than 3-day pretreatment
Protection with pretreatments longer than 3-day [24]: no further increase of benefits
5FU-induced body weight loss with arsenic pretreatment [25]: almost completely prevented
Effect of arsenic pretreatment on 5FU-induced tumor suppression ([4]; mouse, in vivo): little effect
Effect of arsenic pretreatment on irradiation-induced tumor suppression ([4]; mouse, in vivo): little effect
Effect on growth of the implant tumors ([4]; mouse, in vivo): did not have any detectable effect
5FU-induced body weight loss with arsenic pretreatment [26]: almost completely prevented
Body weight change [26]: little loss of body weight
Damage to small intestine and bone marrow cells with arsenic pretreatment [5]: significantly inhibited
p53-dependent tissue damages induced by 5FU treatment [27]: significantly blunted
Concentration resulting in induced proliferation with enhanced NF-κB and AP-1 activity [28]: ≤ 5 µM
Concentration with statistically significant decrease of cell viability [28]: ≥ 10 µM
Protection against toxicity in p53 mutant mice (p53 [29]): little protection
